Measurements from patent publication US20240270701A1, “BETA ADRENERGIC AGONIST AND METHODS OF USING THE SAME” (Curasen Therapeutics, Inc., priority 2021, published 2024).
Read-outs that look alike come from different tables or passages of the source.

What was measured:
B1-AR = biological target: T1, B1-AR (Homo sapiens, UniProt P08588); assay: cAMP Gs dynamic HTRF assay, cells expressing beta-adrenergic receptor (CHO-K1), B1-AR; assay type: cell-based; settings: for EC50: cAMP HTRF, read-out: pEC50 [B1-AR] (converted); for Emax: relative to full agonist isoproterenol, read-out: Emax (% iso) (%) [B1-AR]
T1 construct: expressed in transfected cells; host or cells: CHO-K1
T1 sequence (P08588 whole entry, species assumed): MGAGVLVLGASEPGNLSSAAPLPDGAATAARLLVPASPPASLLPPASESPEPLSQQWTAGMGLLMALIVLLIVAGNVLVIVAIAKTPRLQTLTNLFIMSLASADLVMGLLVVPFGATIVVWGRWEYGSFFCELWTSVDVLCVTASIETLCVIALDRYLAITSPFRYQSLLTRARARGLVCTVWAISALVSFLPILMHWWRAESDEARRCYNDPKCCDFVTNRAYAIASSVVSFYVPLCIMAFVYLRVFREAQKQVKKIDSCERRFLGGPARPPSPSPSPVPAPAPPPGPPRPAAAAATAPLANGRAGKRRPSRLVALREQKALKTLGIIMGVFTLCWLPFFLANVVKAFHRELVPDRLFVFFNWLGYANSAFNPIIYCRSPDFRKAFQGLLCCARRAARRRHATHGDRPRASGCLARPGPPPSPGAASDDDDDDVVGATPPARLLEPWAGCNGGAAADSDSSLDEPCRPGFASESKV
Protocol: (§1) cAMP homogeneous time-resolved fluorescence (HTRF): experimental methods. Compound efficacy is determined using the cAMP Gs dynamic HTRF assay (Cisbio, catalog #62AM4PEC) largely following the manufacturer's instructions, also detailed below.
(§2) Standard serial dilution curves are 10-point, 5-fold dilutions starting from a highest concentration of 10 μM. Controls present on every assay plate are 0.1% DMSO (vehicle control), 1 μM isoproterenol (full beta-adrenergic agonist control) and […] xamoterol (partial beta-adrenergic agonist control). […] Assay plates are centrifuged at 500×g for 10 seconds. Compounds and IBMX are prepared at 2× final dose to compensate for addition of cells.
(§3) Cell preparation: 1× stimulation buffer, washing PBS (Dulbecco's phosphate-buffered saline, − Mg − Ca; Caisson Labs, catalog #PBL01), assay PBS (Dulbecco's phosphate-buffered saline, + Mg, + Ca; Caisson Labs, catalog #PBL02) and Versene (0.02% EDTA disodium salt solution in PBS without calcium or magnesium; Caisson Labs, catalog #EDL01) are pre-warmed to 37° C. Cells expressing beta-adrenergic receptor were washed in washing PBS to remove growth medium and then released from the surface by incubating with Versene for 5-10 minutes at 37° C. Cells are harvested using assay PBS, counted manually by hemocytometer or by an automated cell counter, pelleted by centrifugation (200×g, 5 minutes) and resuspended in 37° C. 1× stimulation buffer to a final density of 1.5×10^6 cells/mL. 5 μL of the suspended cell solution (7500 cell total) are added to all wells of the 384 well assay plate, the assay plate was covered with an Axygen® plate seal (Corning PCR-SP) and incubated in a humidified 37° C. environment supplemented with 5% CO2 for 30 minutes.
(§4) HTRF reagent addition, reading and data analysis: After 30 minutes of cell stimulation with test compound, the assay plates are centrifuged at 500×g for 10 seconds, and incubation was stopped with the addition of 5 μL cAMP-D2 acceptor, diluted 1:21 in detection and lysis buffer 2 (Cisbio 62CL2FDF) was added to all cells. Subsequently, 5 μL Anti-cAMP-Eu Donor, diluted 1:21 in detection and lysis buffer 2, was added to cells. Plates were sealed and reactions gently ‘vortexed’ at 900 rpm on a Heidolph Titramax 1000 for at least 30 minutes at room temperature. Plates are centrifuged again at 500×g for 10 seconds, and HTRF was measured using a Tecan Spark plate reader at 50 flashes per well. […] Potency estimates (EC50 and pEC50) are derived from the four-parameter nonlinear regression of the concentration-effect curve and an estimate of relative efficacy is determined by comparing the magnitude of the test compound HTRF signal window (min−max dose) with the signal window of the full agonist control, isoproterenol.

B2-AR = biological target: T2, B2-AR (Homo sapiens, UniProt P07550); assay: cAMP Gs dynamic HTRF assay, cells expressing beta-adrenergic receptor (CHO-K1), B2-AR; assay type: cell-based; settings: for Emax: relative to full agonist isoproterenol, read-out: Emax (% iso) (%) [B2-AR]; for EC50: cAMP HTRF, read-out: pEC50 [B2-AR] (converted)
T2 construct: expressed in transfected cells; host or cells: CHO-K1
T2 sequence (P07550 whole entry, species assumed): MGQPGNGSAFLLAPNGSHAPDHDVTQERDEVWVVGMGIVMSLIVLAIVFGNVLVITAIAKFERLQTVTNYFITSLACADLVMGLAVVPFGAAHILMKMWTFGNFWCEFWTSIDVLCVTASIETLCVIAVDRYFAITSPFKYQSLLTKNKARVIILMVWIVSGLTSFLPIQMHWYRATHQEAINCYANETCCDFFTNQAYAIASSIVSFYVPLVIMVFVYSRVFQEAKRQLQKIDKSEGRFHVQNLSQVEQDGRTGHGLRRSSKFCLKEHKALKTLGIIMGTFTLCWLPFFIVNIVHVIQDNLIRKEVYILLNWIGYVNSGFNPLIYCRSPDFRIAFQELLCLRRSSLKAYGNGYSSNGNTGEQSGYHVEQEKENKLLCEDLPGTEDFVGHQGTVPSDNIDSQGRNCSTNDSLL
Protocol: as §1, §2, §3, §4

SMILES	EC50 (B1-AR)	Emax (B1-AR)	Emax (B2-AR; CHO-K1, CHO-K1 cells)	EC50 (B2-AR; CHO-K1 cells)	Emax (B2-AR; CHO-K1 cells)
CCC(C)(C)NC[C@H](O)c1cccc2[nH]nc(Cl)c12 [I-45]	< 10 nM	70 to 90%	70 to 90%	< 10 nM	–
O[C@@H](CNC1CC1)c1cccc2[nH]nc(Cl)c12 [I-98]	10 to 100 nM	70 to 90%	–	< 10 nM	70 to 90%
CC1(NC[C@H](O)c2cc(C#N)cc3[nH]ncc23)CCC1 [I-157]	100 to 1000 nM	70 to 90%	> 90%	10 to 100 nM	–
Cc1n[nH]c2cccc([C@@H](O)CNC(C)(C)CO)c12 [I-173]	100 to 1000 nM	70 to 90%	70 to 90%	100 to 1000 nM	–
CCC(CC)NC[C@H](O)c1cc(F)cc2[nH]ncc12 [I-44]	< 10 nM	> 90%	70 to 90%	< 10 nM	–
C[C@H](NC[C@H](O)c1cccc2c1C(F)(F)C(=O)N2)C(C)(C)C [I-2]	> 1000 nM	50 to 70%	–	10 to 100 nM	> 90%
CCC(C)(CC)NC[C@H](O)c1cccc2[nH]nc(F)c12 [I-30]	< 10 nM	> 90%	–	< 10 nM	> 90%
CC(C)(C)NC[C@H](O)c1cc(F)cc2[nH]cnc12 [I-131]	10 to 100 nM	> 90%	70 to 90%	10 to 100 nM	–
Cc1nc(N)ncc1[C@@H](O)CNC(C)(C)C [I-144]	> 1000 nM	70 to 90%	> 90%	10 to 100 nM	–
CCc1n[nH]c2cccc([C@@H](O)CNC(C)(C)C)c12 [I-172]	100 to 1000 nM	70 to 90%	–	100 to 1000 nM	50 to 70%
O[C@@H](CNC1CC1)c1cccc2[nH]ncc12 [I-134]	< 10 nM	70 to 90%	–	< 10 nM	> 90%
CCC(C)(C)NC[C@H](O)c1cccc2[nH]ncc12 [I-47]	< 10 nM	70 to 90%	> 90%	< 10 nM	–
Cc1nc(N)c(Cl)cc1[C@@H](O)CNC1COC1 [I-146]	> 1000 nM	< 50%	–	> 1000 nM	> 90%
Cc1cc([C@@H](O)CNC2CCC2)c2cn[nH]c2c1 [I-136]	< 10 nM	> 90%	> 90%	< 10 nM	–
CC1(NC[C@H](O)c2cccc3[nH]nc(F)c23)CC1 [I-126]	< 10 nM	70 to 90%	> 90%	< 10 nM	–
CC(C)[C@@H](C)NC[C@H](O)c1cccc2[nH]nc(F)c12 [I-38]	< 10 nM	70 to 90%	> 90%	< 10 nM	–
CC(C)(C)NC[C@H](O)c1cc(F)c(Cl)c2[nH]ncc12 [I-58]	< 10 nM	70 to 90%	70 to 90%	< 10 nM	–
Cc1ncccc1[C@@H](O)CNC1CCC1 [I-187]	> 1000 nM	70 to 90%	70 to 90%	100 to 1000 nM	–

SMILES	EC50 (B1-AR)	Emax (B1-AR)	Emax (B2-AR; CHO-K1, CHO-K1 cells)	EC50 (B2-AR; CHO-K1 cells)	Emax (B2-AR; CHO-K1 cells)
CC(C)C(C)(C)NC[C@H](O)c1cccc2[nH]nc(F)c12 [I-25]	< 10 nM	> 90%	–	< 10 nM	> 90%
O[C@@H](CNC1CCC1)c1ccc(Cl)c2[nH]ncc12 [I-119]	< 10 nM	70 to 90%	–	< 10 nM	70 to 90%
CC(C)C(C)(C)NC[C@H](O)c1cccc2[nH]ncc12 [I-29]	10 to 100 nM	> 90%	> 90%	< 10 nM	–
CC(C)(C)NC[C@H](O)c1cnc(N)s1 [I-86]	> 1000 nM	70 to 90%	70 to 90%	100 to 1000 nM	–
CCC(C)(C)NC[C@H](O)c1cccc2[nH]nc(C)c12 [I-54]	100 to 1000 nM	70 to 90%	–	10 to 100 nM	70 to 90%
CC(C)(C)CNC[C@H](O)c1cccc2c1C(F)(F)C(=O)N2 [I-63]	> 1000 nM	< 50%	–	100 to 1000 nM	> 90%
CCC(CC)NC[C@H](O)c1ccc(F)c2[nH]ncc12 [I-37]	10 to 100 nM	70 to 90%	70 to 90%	< 10 nM	–
CCC(C)(C)NC[C@H](O)c1ccc(Cl)c2[nH]ncc12 [I-49]	< 10 nM	70 to 90%	70 to 90%	< 10 nM	–
C[C@@H](NC[C@H](O)c1cccc2[nH]ncc12)C(C)(C)C [I-9]	10 to 100 nM	> 90%	> 90%	< 10 nM	–
N#Cc1cc([C@@H](O)CNC2CC2)c2cn[nH]c2c1 [I-153]	100 to 1000 nM	70 to 90%	–	100 to 1000 nM	> 90%
Cc1ccnc2ccc([C@@H](O)CNC(C)(C)C)cc12 [I-72]	100 to 1000 nM	50 to 70%	< 50%	10 to 100 nM	–
Cc1cc2ncccc2cc1[C@@H](O)CNC(C)(C)C [I-79]	> 1000 nM	> 90%	–	100 to 1000 nM	< 50%
CC(C)(C)CNC[C@H](O)c1cccc2[nH]ncc12 [I-88]	100 to 1000 nM	70 to 90%	–	< 10 nM	> 90%
CC(C)[C@H](C)NC[C@H](O)c1cccc2[nH]ncc12 [I-40]	10 to 100 nM	70 to 90%	–	< 10 nM	> 90%
Cc1c(F)cc([C@@H](O)CNC(C)(C)C)c2cn[nH]c12 [I-62]	< 10 nM	70 to 90%	–	< 10 nM	70 to 90%
CC(C)NC[C@H](O)c1cncc2[nH]ncc12 [I-159]	100 to 1000 nM	70 to 90%	–	100 to 1000 nM	> 90%
CC(C)(NC[C@H](O)c1cc(C#N)cc2[nH]ncc12)C1CC1 [I-1]	100 to 1000 nM	> 90%	–	10 to 100 nM	> 90%
CC[C@H](C)NC[C@H](O)c1cccc2[nH]nc(F)c12 [I-35]	< 10 nM	70 to 90%	–	< 10 nM	70 to 90%
